# Measured values: patent US20090221594A1, “STABLE PHARMACEUTICAL COMPOSITIONS OF 5, 10 METHYLENETRAHYDROFOLATE” (priority 2005, published 2009)
# Columns and labels:
# Type in all cases: physicochemical
# [1] = pH time course following dissolution in water; settings: for pH following dissolution in water: room temperature, ambient air
# Protocol: (§1) 10 ml sterile water was added to the reference formulation lyophile of 5,10-MTHF and to each of the test formulation lyophiles to give a final concentration of 10 mg/ml (this dissolution volume and concentration corresponds to the most current recommended clinical use guidelines for 5,10-MTHF for cancer therapy). The nonformulated 5,10-MTHF was dissolved in water to a concentration of 6 mg/ml. The lower concentration of nonformulated 5,10-MTHF was due to the fact that nonformulated 5,10-MTHF has a maximum solubility in water of approximately 6 mg/ml (when dissolved in a trisodium citrate, 5,10-MTHF has a much higher (>10 mg/ml) solubility). Samples were stored at room temperature under ambient air conditions to mimic as close as possible expected real-world use.
# The pH of 5,10-MTHF dissolved in water was measured at multiple time points using a digital pH meter.
# [2] = 5,10-MTHF stability following dissolution in water by HPLC; settings: for % Normalized Purity of 5,10-MTHF: room temperature
# Protocol: as §1
# The stability of 5,10-MTHF dissolved in water was measured by HPLC. Data is reported as the normalized purity of 5,10-MTHF based on the starting purity according to the following formula: % Normalized Purity=(% 5,10-MTHF Time X)÷(% 5,10-MTHF Time 0)×(100)
# 5,10-MTHF stability kinetics were estimated by linear regression analysis (GraphPad Prism software).
# [3] = Solubility of 5,10-MTHF in water
# Protocol: as §1
structure (smiles),measurement,setting,value
"Nc1nc2c(c(=O)[nH]1)N1CN(c3ccc(C(=O)N[C@@H](CCC(=O)O)C(=O)O)cc3)CC1CN2 (some centres unmarked) [Nonformulated, 5,10-methylenetetrahydrofolate]",pH following dissolution in water,[1]; 0 hours,6.88
same,pH following dissolution in water,[1]; 0.25 hours,6.89
same,pH following dissolution in water,[1]; 0.5 hours,6.87
same,pH following dissolution in water,[1]; 0.75 hours,6.85
same,pH following dissolution in water,[1]; 1 hour,6.83
same,pH following dissolution in water,[1]; 2 hours,6.77
same,pH following dissolution in water,[1]; 4 hours,6.80
same,pH following dissolution in water,[1]; 6 hours,6.83
same,pH following dissolution in water,[1]; 8 hours,6.81
same,pH following dissolution in water,[1]; 24 hours,6.79
same,"pH following dissolution in water (approximate, text summary)",[1]; starting and steady state pH over 24 hours,~6.9
same,"% Normalized Purity of 5,10-MTHF",[2]; 0 hours after dissolution in water,100.0%
same,"% Normalized Purity of 5,10-MTHF",[2]; 0.5 hours after dissolution in water,94.9%
same,"% Normalized Purity of 5,10-MTHF",[2]; 1 hour after dissolution in water,92.4%
same,"% Normalized Purity of 5,10-MTHF",[2]; 2 hours after dissolution in water,90.3%
same,"% Normalized Purity of 5,10-MTHF",[2]; 4 hours after dissolution in water,85.9%
same,"% Normalized Purity of 5,10-MTHF",[2]; 8 hours after dissolution in water,77.8%
same,"% Normalized Purity of 5,10-MTHF",[2]; 12 hours after dissolution in water,69.6%
same,"% Normalized Purity of 5,10-MTHF",[2]; 18 hours after dissolution in water,55.1%
same,"% Normalized Purity of 5,10-MTHF",[2]; 24 hours after dissolution in water,44.9%
same,Linear Regression Degradation Rate Following Dissolution in Water,"[2]; slope of best-fit line, 0-24 hours",−2.2 % Purity/Hours
same,solubility when dissolved in trisodium citrate,[3]; dissolved in a trisodium citrate,> 10 mg/mL
same,maximum solubility in water,"[3]; nonformulated, water",approximately 6 mg/ml
